Experiments:
[1] = system: IL-21 secretion from human CD4+ T cells; test: Suppression of IL-21 secretion by activated Th17 cells (ALPHALISA); type: cell-based; settings: for IC50: 120 h, human CD4+ T cells under Th17 stimulation, 5 days; for potency in suppressing IL-21 secretion, in words: human CD4+ T cells
Source text: IL-21 is a pro-inflammatory cytokine secreted by CD4^+ Th17 cells and is thought to serve as a T-cell growth factor playing overlapping roles with IL-2. This Example describes a study that measured the IC50 values of the indole compounds disclosed herein for suppressing IL-21 secretion from human CD4^+ T cells that had been treated with stimulatory conditions that gave rise to TH17 cells (see, e.g., Dobritsa et al., J Biomol Screen. 18(1):75-84 (2013)).
Human CD4^+ T cells were purchased from Lonza Walkersville Inc. (Walkersville, MD). DMSO was obtained from Sigma (St. Louis, MO). Greiner cell culture plates, Gibco DMEM cell culture medium, media supplements, and antibiotics, as well as DYNABEADS Human T-Activator CD3/CD28 and R&D Systems TGF-β, IL-1β and IL-23 and Invitrogen IL-6 cytokines, were purchased through Fisher Scientific (Pittsburgh, PA). ALPHALISA assay plates and the Human Interleukin-21 ALPHALISA kit was obtained from Perkin Elmer (Boston, MA).
Cell culture plates were pre-coated with test compounds in serial dilutions for generating a 10-point, 3-fold dose response curve with a top concentration of 1 μM or 100 nM. To do this, compounds were dissolved in DMSO and added to an ECHO qualified plate for transfer to the cell culture plate with the ECHO555. The indole compounds to be tested were dissolved in […] and wells were backfilled with DMSO so that all treatments received 0.1% DMSO final volume. Positive control (0% inhibition) wells, in which compounds were replaced with […], were included on each plate. At least 15×10^6 frozen CD4^+ T cells per plate of compounds were thawed in a 37° C. water bath, and the cells were washed twice with 10 mL of the complete medium (DMEM supplemented with 10% fetal bovine serum (FBS), 100 U/mL penicillin, and 100 μg/mL streptomycin), followed by centrifugation (250×g, 10 min). Cells were re-suspended to the desired density, and cultured in 384-well treated sterile cell culture plates in a total volume of 50 μL per well. Each plate included wells with induced and un-induced cells.
Induced cells were activated in the complete medium with DYNABEADS Human T-Activator CD3/CD28 at a bead-to-cell ratio of 1:2.5 and stimulated with the following cytokines: transforming growth factor-β (TGF-β, 5 ng/mL), IL-6 (20 ng/mL), IL-23 (20 ng/mL), and IL-1β (10 ng/mL).
Un-induced cells were left in complete medium with no additional supplements. Plates were incubated at 37° C., 5% CO2 for a total of 5 days. Upon completion of the 5 day incubation period, cells were spun down (1,000×g, 1 min) and supernatant was transferred to the ALPHALISA assay plate using the Mosquito HTS liquid handler (TTP Labtech Inc., Cambridge, MA).
IL-21 levels in cell supernatants and cell-free control samples were measured using the ALPHALISA assay kit from Perkin Elmer, following the manufacturer's instructions. The assay was run at room temperature in 384-well ALPHAPLATES (cat. 6005350; Boston, MA). Briefly, immediately after transferring the cell supernatant to the assay plate, anti-IL-21 acceptor beads were added with the CERTUS FLEX liquid handler (LEAP Technologies, Morrisville, NC). The plate was sealed, spun down and incubated for 30 minutes. After incubation, the seal was removed, anti-IL-21 biotinylated antibody was added with the CERTUS FLEX, and the plate was sealed again, spun down and incubated for 60 minutes. Next, the seal was removed, streptavidin-coated donor beads were added with the CERTUS FLEX, and the plate was sealed, spun down and incubated for another 60 minutes. Finally, the seal was removed and the plate was read using the ENVISION reader (Perkin Elmer, Boston, MA) set with an excitation filter of 680 nm and an emission filter of 615 nm. Two independent IL-21 standard dilution curves were run per plate with analyte provided in the ALPHALISA kit.
For estimation of the assay performance, Z′ values were calculated for each plate, comparing positive and negative controls. […]

[2] = system: human hepatocytes; test: Hepatocyte intrinsic clearance assay, human hepatocytes; type: in vitro ADME; settings: for CLint (μL/min/10^6 ells) / EH (%) hepatic extraction ratio: Human Hepatocytes; for CLint (μL/min/10^6 ells): 1 μM test compound; for EH (%) hepatic extraction ratio: well stirred liver model, fu=1
Source text: The liver is an important organ in the body for drug metabolism. This Example describes hepatocyte intrinsic clearance assays using both human and mouse hepatocytes to evaluate the metabolic stability of the indole compounds disclosed herein. The parameters measured include t1/2 (half-life), CLint (intrinsic clearance), and EH (hepatic extraction ratio).
Testosterone (Lot FE111011-01) was obtained from Cerilliant (Round Rock, TX). 7-hydroxycoumarin (Lot 11631ED) was obtained from Sigma Aldrich (St. Louis, MO). Cryopreserved human hepatocytes pooled from ten donor males (X008001), cryopreserved male IRC/CD-1 mouse hepatocytes (M005052), INVITROGRO HI Medium (incubation), and INVITROGRO HT Medium (thawing) were obtained from Bioreclamation IVT (Baltimore, MD). All solvents were obtained from commercial sources and used without further purification.
Each test compound was prepared as a 1 mM stock solution in DMSO. A 2 μM solution of test compound and positive controls were prepared in INVITROGRO HI Medium (incubation). These solutions were pre-warmed in a sterile incubator set to maintain 37° C., 5% CO2, and 98% humidity. Cryopreserved hepatocytes were prepared at a concentration of 2×10^6 living cells/mL in incubation media and pre-warmed in the incubator. The compound solutions and hepatocyte mixtures were then combined at a ratio of 1:1 (v:v). The final volume of the reaction mixture was 750 μL, containing 1 μM test compound (10 μM for 7-hydroxycoumarin) and […]. The reaction mixture was placed in the incubator on a plate shaker. After 0, 15, 30, 60, 90, and 120 minutes of incubation, 100 μL of reaction mixtures were removed from the incubation plate and mixed with 150 μL of ice-cold acetonitrile in a designated well of a 96-well crash plate. The 96-well crash plate was placed on ice for 15 min, and samples were centrifuged (3,600 RPM, 10 min, 4° C.) to precipitate protein. The supernatants were diluted 1:1 (v:v) with water containing 0.15 μM verapamil and/or 1 μM tolbutamide (internal standards for positive and negative modes, respectively) in a 96-well shallow injection plate. This plate was sealed for LC-MS analysis. All measurements were done in duplicate.
The residual compound remaining (% R) was determined from LC-MS peak areas by comparison to the zero time point. Metabolic half-life (t1/2) and intrinsic clearance (CLint) values were calculated from the slope of the plot of ln (% R) vs. time and the concentration of hepatocytes present in the incubation. Percent remaining at 60 minutes was calculated by plugging in the 60 minute value into the slope equation generated by the percent remaining time points.
In vivo hepatic clearance CLH was calculated using the well stirred liver model according to the following equation:
[formula] where QH is the total liver blood flow, fu is unbound fraction of the drug, and CL′int is defined as follows: CL′int=CLint×(10^6 cells/g of liver weight)×(g liver weight/kg of body weight). In the first approximation, used in this study, fu=1.
Hepatic extraction ratio EH was calculated using the following equation:
[formula] Corresponding physiological parameters used in calculations for all species are shown below in Table 5.

SMILES	IC50 [1]	potency in suppressing IL-21 secretion, in words [1]	CLint (μL/min/10^6 ells) [2]	EH (%) hepatic extraction ratio [2]	clearance / metabolic profile, in words ([2]; human hepatocytes)	EH lower as compared to ARI-002, in words ([2]; human hepatocytes)	times lower clearance as compared to ARI-002 ([2]; human hepatocytes)
CNC(=O)c1csc(C(=O)c2c[nH]c3ccccc23)n1 [ARI-004]	231 nM	weak activity	40.2 μL/min/10^6 ells	65%			
NCc1nnc(-c2csc(C(=O)c3c[nH]c4c(F)cccc34)n2)o1 [ARI-145, (4-(5-(aminomethyl)-1,3,4-oxadiazol-2-yl)thiazol-2-yl)(7-fluoro-1H-indol-3-yl)methanone]	46.9 nM		4.1 μL/min/10^6 ells	33%			
CCC(=O)c1csc(C(=O)c2c[nH]c3ccc(Cl)cc23)n1 [ARI-067, 1-(2-(5-chloro-1H-indole-3-carbonyl)thiazol-4-yl)propan-1-one]	6.3 nM		2.3 μL/min/10^6 ells	22%			
Nc1nnc(-c2csc(C(=O)c3c[nH]c4ccccc34)n2)o1 [ARI-083, (4-(5-amino-1,3,4-oxadiazol-2-yl)thiazol-2-yl)(1H-indol-3-yl)methanone]	0.3 nM	most potent	1.1 μL/min/10^6 ells	12%	lower clearance and hepatic extraction parameters than ARI-060		
Nc1nnc(-c2csc(C(=O)c3c[nH]c4ccccc34)n2)s1 [ARI-090, (4-(5-amino-1,3,4-thiadiazol-2-yl)thiazol-2-yl)(1H-indol-3-yl)methanone]	8.4 nM		5.3 μL/min/10^6 ells	39%			
CCC(=O)c1csc(C(=O)c2c[nH]c3cc(F)ccc23)n1 [ARI-143, 1-(2-(6-fluoro-1H-indole-3-carbonyl)thiazol-4-yl)propan-1-one]	18.8 nM		4.5 μL/min/10^6 ells	36%		two times	30 times
Nc1nnc(-c2csc(C(=O)c3c[nH]c4cc(Cl)c(Cl)cc34)n2)o1 [ARI-120, (4-(5-amino-1,3,4-oxadiazol-2-yl)thiazol-2-yl)(5,6-dichloro-1H-indol-3-yl)methanone]	0.3 nM	most potent	0.8 μL/min/10^6 ells	8.5%	low clearance		
Nc1nnc(-c2csc(C(=O)c3c[nH]c4ccc(F)cc34)n2)o1 [ARI-148, (4-(5-amino-1,3,4-oxadiazol-2-yl)thiazol-2-yl)(5-fluoro-1H-indol-3-yl)methanone]	5.9 nM		2.5 μL/min/10^6 ells	23%			
COC(=O)c1csc(C(=O)c2c[nH]c3ccc(Cl)cc23)n1 [ARI-055, methyl 2-(5-chloro-1H-indole-3-carbonyl)thiazole-4-carboxylate]	73.6 nM		10.3 μL/min/10^6 ells	56%			

Source: patent publication US11891386B2, “Indole compounds and their use” (ARIAGEN, INC., priority 2017, dated 2024)
